# In PubChem BioAssay (NCI):
#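 Cultured in 96-well plates, cells were exposed to test compound for 48 hours across five concentrations. GI50 is the concentration that inhibits growth by half. The concentration for full growth arrest is given as TGI.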
# What was measured:
# Experiment in all cases: growth of human tumour cells (NCI), 48 h
# BT-549 breast = test system: BT-549 breast
# NCI-H522 lung = test system: NCI-H522 lung
# MDA-MB-231 breast = test system: MDA-MB-231 breast
# PC-3 prostate = test system: PC-3 prostate
# NCI-H460 lung = test system: NCI-H460 lung
# OVCAR-4 ovarian = test system: OVCAR-4 ovarian
# SK-OV-3 ovarian = test system: SK-OV-3 ovarian
# RPMI-8226 leukemia = test system: RPMI-8226 leukemia
# MALME-3M melanoma = test system: MALME-3M melanoma
# SF-295 CNS = test system: SF-295 CNS
# KM12 colon = test system: KM12 colon
# SF-268 CNS = test system: SF-268 CNS
# HOP-62 NSCLC = test system: HOP-62 NSCLC
# CAKI-1 renal = test system: CAKI-1 renal
# 786-0 renal = test system: 786-0 renal
# COLO 205 colon = test system: COLO 205 colon
# NCI-H23 lung = test system: NCI-H23 lung
# TK-10 renal = test system: TK-10 renal
# ACHN renal = test system: ACHN renal
# MCF7 breast = test system: MCF7 breast
# SNB-19 CNS = test system: SNB-19 CNS
# UACC-62 melanoma = test system: UACC-62 melanoma
# SF-539 CNS = test system: SF-539 CNS
# SK-MEL-2 melanoma = test system: SK-MEL-2 melanoma
# HCT-116 colon = test system: HCT-116 colon
# UO-31 renal = test system: UO-31 renal
# HCC-2998 colon = test system: HCC-2998 colon
# T-47D breast = test system: T-47D breast
# SNB-75 CNS = test system: SNB-75 CNS
# HS 578T breast = test system: HS 578T breast
# EKVX NSCLC = test system: EKVX NSCLC
# CCRF-CEM leukemia = test system: CCRF-CEM leukemia
# SK-MEL-28 melanoma = test system: SK-MEL-28 melanoma
# NCI-H226 lung = test system: NCI-H226 lung
# LOX IMVI melanoma = test system: LOX IMVI melanoma
# SR leukemia = test system: SR leukemia
# M14 melanoma = test system: M14 melanoma
# U251 CNS = test system: U251 CNS
# K-562 leukemia = test system: K-562 leukemia
# MOLT-4 leukemia = test system: MOLT-4 leukemia
# SK-MEL-5 melanoma = test system: SK-MEL-5 melanoma
# HL-60(TB) leukemia = test system: HL-60(TB) leukemia
# MDA-MB-468 breast = test system: MDA-MB-468 breast
# HT29 colon = test system: HT29 colon
# OVCAR-5 ovarian = test system: OVCAR-5 ovarian
# MDA-MB-435 = test system: MDA-MB-435
# OVCAR-3 ovarian = test system: OVCAR-3 ovarian
# DU-145 prostate = test system: DU-145 prostate
# A549 NSCLC = test system: A549 NSCLC
# NCI/ADR-RES ovarian = test system: NCI/ADR-RES ovarian
# SN12C renal = test system: SN12C renal
# HOP-92 NSCLC = test system: HOP-92 NSCLC
# UACC-257 melanoma = test system: UACC-257 melanoma
# SW-620 colon = test system: SW-620 colon
# HCT-15 colon = test system: HCT-15 colon
# OVCAR-8 ovarian = test system: OVCAR-8 ovarian
# IGROV1 ovarian = test system: IGROV1 ovarian
# A498 renal = test system: A498 renal
smiles,measurement,setting,value
COc1ccc(C(=O)/C=C/c2ccc(OCc3ccc(F)cc3)c(OC)c2)cc1OC,GI50,BT-549 breast,3.62 µM
same,TGI,BT-549 breast,60 µM
same,GI50,NCI-H522 lung,3.39 µM
same,TGI,NCI-H522 lung,71.6 µM
same,GI50,MDA-MB-231 breast,3.95 µM
same,TGI,MDA-MB-231 breast,> 100 µM
same,GI50,PC-3 prostate,6.1 µM
same,TGI,PC-3 prostate,> 100 µM
same,GI50,NCI-H460 lung,5.88 µM
same,TGI,NCI-H460 lung,> 100 µM
same,GI50,OVCAR-4 ovarian,3.94 µM
same,TGI,OVCAR-4 ovarian,> 100 µM
same,GI50,SK-OV-3 ovarian,34.8 µM
same,TGI,SK-OV-3 ovarian,> 100 µM
same,GI50,RPMI-8226 leukemia,2.7 µM
same,TGI,RPMI-8226 leukemia,> 100 µM
same,GI50,MALME-3M melanoma,27.5 µM
same,TGI,MALME-3M melanoma,> 100 µM
same,GI50,SF-295 CNS,3.99 µM
same,TGI,SF-295 CNS,> 100 µM
same,GI50,KM12 colon,4.31 µM
same,TGI,KM12 colon,> 100 µM
same,GI50,SF-268 CNS,12 µM
same,TGI,SF-268 CNS,> 100 µM
same,GI50,HOP-62 NSCLC,3.55 µM
same,TGI,HOP-62 NSCLC,> 100 µM
same,GI50,CAKI-1 renal,6.01 µM
same,TGI,CAKI-1 renal,> 100 µM
same,GI50,786-0 renal,30 µM
same,TGI,786-0 renal,> 100 µM
same,GI50,COLO 205 colon,7.93 µM
same,TGI,COLO 205 colon,> 100 µM
same,GI50,NCI-H23 lung,4.44 µM
same,TGI,NCI-H23 lung,79.3 µM
same,GI50,TK-10 renal,14.3 µM
same,TGI,TK-10 renal,> 100 µM
same,GI50,ACHN renal,6.46 µM
same,TGI,ACHN renal,> 100 µM
same,GI50,MCF7 breast,3.04 µM
same,TGI,MCF7 breast,> 100 µM
same,GI50,SNB-19 CNS,4.11 µM
same,TGI,SNB-19 CNS,> 100 µM
same,GI50,UACC-62 melanoma,4.41 µM
same,TGI,UACC-62 melanoma,> 100 µM
same,GI50,SF-539 CNS,3.36 µM
same,TGI,SF-539 CNS,16.7 µM
same,GI50,SK-MEL-2 melanoma,13.4 µM
same,TGI,SK-MEL-2 melanoma,47.6 µM
same,GI50,HCT-116 colon,3.57 µM
same,TGI,HCT-116 colon,> 100 µM
same,GI50,UO-31 renal,3.7 µM
same,TGI,UO-31 renal,> 100 µM
same,GI50,HCC-2998 colon,3 µM
same,TGI,HCC-2998 colon,16.4 µM
same,GI50,T-47D breast,5.34 µM
same,TGI,T-47D breast,> 100 µM
same,GI50,SNB-75 CNS,17.3 µM
same,TGI,SNB-75 CNS,99.2 µM
same,GI50,HS 578T breast,23 µM
same,TGI,HS 578T breast,> 100 µM
same,GI50,EKVX NSCLC,5.19 µM
same,TGI,EKVX NSCLC,> 100 µM
same,GI50,CCRF-CEM leukemia,3.49 µM
same,TGI,CCRF-CEM leukemia,> 100 µM
same,GI50,SK-MEL-28 melanoma,29.3 µM
same,TGI,SK-MEL-28 melanoma,> 100 µM
same,GI50,NCI-H226 lung,4.7 µM
same,TGI,NCI-H226 lung,> 100 µM
same,GI50,LOX IMVI melanoma,3.06 µM
same,TGI,LOX IMVI melanoma,> 100 µM
same,GI50,SR leukemia,3.18 µM
same,TGI,SR leukemia,> 100 µM
same,GI50,M14 melanoma,22.6 µM
same,TGI,M14 melanoma,> 100 µM
same,GI50,U251 CNS,3.79 µM
same,TGI,U251 CNS,> 100 µM
same,GI50,K-562 leukemia,3.72 µM
same,TGI,K-562 leukemia,> 100 µM
same,GI50,MOLT-4 leukemia,4.07 µM
same,TGI,MOLT-4 leukemia,> 100 µM
same,GI50,SK-MEL-5 melanoma,10.4 µM
same,TGI,SK-MEL-5 melanoma,29 µM
same,GI50,HL-60(TB) leukemia,10.4 µM
same,TGI,HL-60(TB) leukemia,> 100 µM
same,GI50,MDA-MB-468 breast,2.74 µM
same,TGI,MDA-MB-468 breast,> 100 µM
same,GI50,HT29 colon,3.02 µM
same,TGI,HT29 colon,> 100 µM
same,GI50,OVCAR-5 ovarian,3.32 µM
same,TGI,OVCAR-5 ovarian,> 100 µM
same,GI50,MDA-MB-435,5.06 µM
same,TGI,MDA-MB-435,60.9 µM
same,GI50,OVCAR-3 ovarian,4.64 µM
same,TGI,OVCAR-3 ovarian,> 100 µM
same,GI50,DU-145 prostate,5.64 µM
same,TGI,DU-145 prostate,> 100 µM
same,GI50,A549 NSCLC,4.81 µM
same,TGI,A549 NSCLC,> 100 µM
same,GI50,NCI/ADR-RES ovarian,2.86 µM
same,TGI,NCI/ADR-RES ovarian,16.2 µM
same,GI50,SN12C renal,2.95 µM
same,TGI,SN12C renal,> 100 µM
same,GI50,HOP-92 NSCLC,7.53 µM
same,TGI,HOP-92 NSCLC,> 100 µM
same,GI50,UACC-257 melanoma,23.2 µM
same,TGI,UACC-257 melanoma,> 100 µM
same,GI50,SW-620 colon,3.8 µM
same,TGI,SW-620 colon,> 100 µM
same,GI50,HCT-15 colon,3.09 µM
same,TGI,HCT-15 colon,> 100 µM
same,GI50,OVCAR-8 ovarian,3.46 µM
same,TGI,OVCAR-8 ovarian,> 100 µM
same,GI50,IGROV1 ovarian,3.88 µM
same,TGI,IGROV1 ovarian,> 100 µM
same,GI50,A498 renal,26.1 µM
same,TGI,A498 renal,> 100 µM
